US20260262643A1, “HERBICIDAL BENZOXAZINES” (FMC CORPORATION, priority 2022, published 2026)

How the values were obtained:
blackgrass [1] = test: Test A preemergence; type: in vivo, Alopecurus myosuroides; conditions: 0 to 100 scale; for pest or weed control at 125 g/ha / pest or weed control at 500 g/ha: Alopecurus myosuroides, pre-emergence, 240 h, read-out: Plant response rating, Blackgrass
Outline: (§1)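 Greenhouse pot test, 10 days. Compound (non-phytotoxic solvent, surfactant) sprayed on soil at seeding or on seedlings at one- to two-leaf stage. Visual injury rated 0–100 against untreated plants.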

pigweed, palmer [2] = test: Test A preemergence; type: in vivo, Amaranthus palmeri; conditions: 0 to 100 scale; for pest or weed control at 125 g/ha / pest or weed control at 500 g/ha: Amaranthus palmeri, pre-emergence, 240 h, read-out: Plant response rating, Pigweed, Palmer; for pest or weed control at 125 g/ha: 125 g ai/ha
Outline: as §1

ragweed [3] = test: Test A preemergence; type: in vivo, Ambrosia artemisiifolia; conditions: 0 to 100 scale; for pest or weed control at 125 g/ha / pest or weed control at 500 g/ha: Ambrosia artemisiifolia, pre-emergence, 240 h, read-out: Plant response rating, Ragweed; for pest or weed control at 125 g/ha: 125 g ai/ha
Outline: as §1

ryegrass, Italian = test: Test A preemergence; type: in vivo, Lolium multiflorum; conditions: 0 to 100 scale; for pest or weed control at 125 g/ha / pest or weed control at 500 g/ha: Lolium multiflorum, pre-emergence, 240 h, read-out: Plant response rating, Ryegrass, Italian; for pest or weed control at 125 g/ha: 125 g ai/ha
Outline: as §1

soybean = test: Test A preemergence; type: in vivo, Glycine max; conditions: 0 to 100 scale; for plant injury at 125 g/ha / plant injury at 500 g/ha: Glycine max, pre-emergence, 240 h, read-out: Plant response rating, Soybean; for plant injury at 125 g/ha: 125 g ai/ha
Outline: as §1

blackgrass [4] = test: Test A postemergence; type: in vivo, Alopecurus myosuroides; conditions: postemergence, 10 days; for pest or weed control at 125 g/ha / pest or weed control at 500 g/ha: Alopecurus myosuroides, post-emergence, 240 h; for pest or weed control at 125 g/ha: read-out: Blackgrass plant response rating; for pest or weed control at 500 g/ha: read-out: Plant response rating, Blackgrass
Outline: as §1

corn = test: Test A postemergence; type: in vivo, Zea mays; conditions: postemergence, 10 days, 0 to 100 scale (0 no effect, 100 complete control); for plant injury at 125 g/ha / Corn plant response rating (crop injury, 0 = no effect, 100 = complete kill) at 500 g/ha: Zea mays, post-emergence, 240 h; for plant injury at 125 g/ha: 125 g ai/ha, read-out: Corn plant response rating
Outline: as §1

foxtail, giant = test: Test A postemergence; type: in vivo, Setaria faberi; conditions: postemergence, 10 days, 0 to 100 scale (0 no effect, 100 complete control); for pest or weed control at 125 g/ha: 125 g ai/ha, read-out: Foxtail, Giant plant response rating
Outline: as §1

oat, wild = test: Test A postemergence; type: in vivo, Avena fatua; conditions: postemergence, 10 days; for pest or weed control at 125 g/ha / pest or weed control at 500 g/ha: Avena fatua, post-emergence, 240 h; for pest or weed control at 125 g/ha: read-out: Oat, Wild plant response rating; for pest or weed control at 500 g/ha: read-out: Plant response rating, Oat, Wild
Outline: as §1

pigweed, palmer [5] = test: Test A postemergence; type: in vivo, Amaranthus palmeri; conditions: postemergence, 10 days, 0 to 100 scale (0 no effect, 100 complete control); for pest or weed control at 125 g/ha / pest or weed control at 500 g/ha: Amaranthus palmeri, post-emergence, 240 h; for pest or weed control at 125 g/ha: 125 g ai/ha, read-out: Pigweed, Palmer plant response rating; for pest or weed control at 500 g/ha: read-out: Plant response rating, Pigweed, Palmer
Outline: as §1

ragweed [6] = test: Test A postemergence; type: in vivo, Ambrosia artemisiifolia; conditions: postemergence, 10 days, 0 to 100 scale (0 no effect, 100 complete control); for pest or weed control at 125 g/ha / pest or weed control at 500 g/ha: Ambrosia artemisiifolia, post-emergence, 240 h; for pest or weed control at 125 g/ha: 125 g ai/ha, read-out: Ragweed plant response rating; for pest or weed control at 500 g/ha: read-out: Plant response rating, Ragweed
Outline: as §1

wheat = test: Test A postemergence; type: in vivo, Triticum aestivum; conditions: postemergence, 10 days, 0 to 100 scale (0 no effect, 100 complete control); for plant injury at 125 g/ha / plant injury at 500 g/ha: Triticum aestivum, post-emergence, 240 h; for plant injury at 125 g/ha: 125 g ai/ha, read-out: Wheat plant response rating; for plant injury at 500 g/ha: read-out: Plant response rating, Wheat
Outline: as §1

ducksalad = test: Test B flooded paddy test; type: in vivo, Heteranthera limosa; conditions: 250 g ai/ha, Flood, 13 days, 0 to 100 scale (0 no effect, 100 complete control); for pest or weed control at 250 g/ha: Heteranthera limosa, 312 h, read-out: Plant response rating, Ducksalad
Outline: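 Compound is introduced into paddy water covering soil by 3 cm, treating plants that have reached two leaves. Pots are kept flooded at that depth under greenhouse conditions. Assessment at 13 days gives a 0–100 visual control score.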

[7] = 500 g ai/ha, visual injury after 10 days, 0 is no effect, 100 is complete control
[8] = 125 g ai/ha, 0 to 100 scale, 0 no effect, 100 complete control
[9] = 500 g ai/ha, visual injury, 0 to 100 scale (0 no effect, 100 complete control)
[10] = Setaria faberi, post-emergence, 240 h
[11] = 125 g ai/ha, 0 to 100 scale (0 no effect, 100 complete control)

| SMILES | pest or weed control at 125 g/ha (pigweed, palmer [2]) | pest or weed control at 125 g/ha (ragweed [3]) | pest or weed control at 125 g/ha (ryegrass, Italian) | plant injury at 125 g/ha (soybean) | plant injury at 125 g/ha (corn) | pest or weed control at 125 g/ha (foxtail, giant; [10]) | pest or weed control at 125 g/ha (pigweed, palmer [5]) | pest or weed control at 125 g/ha (ragweed [6]) | plant injury at 125 g/ha (wheat) | pest or weed control at 125 g/ha (blackgrass [1]; 125 g ai/ha) | pest or weed control at 500 g/ha (blackgrass [1]; [7]) | pest or weed control at 500 g/ha (pigweed, palmer [2]; [7]) | pest or weed control at 500 g/ha (ragweed [3]; [7]) | pest or weed control at 500 g/ha (ryegrass, Italian; [7]) | plant injury at 500 g/ha (soybean; [7]) | pest or weed control at 125 g/ha (blackgrass [4]; [11]) | pest or weed control at 500 g/ha (blackgrass [4]; [9]) | Corn plant response rating (crop injury, 0 = no effect, 100 = complete kill) at 500 g/ha (corn; 500 g ai/ha, visual injury) | pest or weed control at 125 g/ha (oat, wild; [11]) | pest or weed control at 500 g/ha (oat, wild; [9]) | other results |
| --- | --- | --- | --- | --- | --- | --- | --- | --- | --- | --- | --- | --- | --- | --- | --- | --- | --- | --- | --- | --- | --- |
| CC(C)c1ncn(-c2cc(C(=O)N3C[C@H](C)Oc4c(Cl)cccc43)c3ccccc3c2)n1 [Compound 146] | 90% | 0% | 30% | 0% | 10% | 30% | 70% | 0% | 20% |  |  |  |  |  |  |  |  |  |  |  | Plant response rating, Blackgrass (blackgrass [1]; 125 g ai/ha): 70; Plant response rating, Blackgrass (blackgrass [1]; [7]): 90; Plant response rating, Pigweed, Palmer (pigweed, palmer [2]; [7]): 100; Plant response rating, Ragweed (ragweed [3]; [7]): 0; Plant response rating, Ryegrass, Italian (ryegrass, Italian; [7]): 70; Plant response rating, Soybean (soybean; [7]): 20; Blackgrass plant response rating (blackgrass [4]; [8]): 10; Plant response rating, Blackgrass (blackgrass [4]; [9]): 20; Plant response rating, Corn (corn; 500 g ai/ha, visual injury): 30; Plant response rating, Foxtail, Giant (foxtail, giant; 500 g ai/ha, visual injury): 50; Oat, Wild plant response rating (oat, wild; [8]): 0; Plant response rating, Oat, Wild (oat, wild; [9]): 10; Plant response rating, Pigweed, Palmer (pigweed, palmer [5]; 500 g ai/ha, visual injury): 70; Plant response rating, Ragweed (ragweed [6]; 500 g ai/ha, visual injury): 0; Plant response rating, Wheat (wheat; 500 g ai/ha, visual injury): 30; Plant response rating, Ducksalad (ducksalad): 0 |
| C[C@H]1CN(C(=S)c2cccc(-n3cncn3)c2)c2cccc(Cl)c2O1 [Compound 139, [(2S)-8-Chloro-2,3-dihydro-2-methyl-4H-1,4-benzoxazin-4-yl][3-(1H-1,2,4-triazol-1-yl)phenyl]methanethione] | 40% | 0% | 50% | 0% | 40% | 80% | 40% | 0% | 20% | 70% | 90% | 100% | 0% | 80% | 40% | 80% | 90% | 60% | 0% | 60% | pest or weed control at 500 g/ha (foxtail, giant; Setaria faberi, post-emergence, 240 h, 500 g ai/ha, visual injury, read-out: Plant response rating, Foxtail, Giant): 100%; pest or weed control at 500 g/ha (pigweed, palmer [5]; 500 g ai/ha, visual injury): 80%; pest or weed control at 500 g/ha (ragweed [6]; 500 g ai/ha, visual injury): 30%; plant injury at 500 g/ha (wheat; 500 g ai/ha, visual injury): 50%; pest or weed control at 250 g/ha (ducksalad): 75% |
| CC(C)c1ncn(-c2cc3c(c(C(=O)N4C[C@H](C)Oc5c(Cl)cccc54)c2)OCC3)n1 [Compound 147] | 90% | 0% | 90% | 0% | 10% |  | 80% | 0% | 10% | 20% | 90% | 100% | 0% | 100% | 100% | 70% | 100% | 90% | 30% | 80% | pest or weed control at 500 g/ha (pigweed, palmer [5]; 500 g ai/ha, visual injury): 90%; pest or weed control at 500 g/ha (ragweed [6]; 500 g ai/ha, visual injury): 30%; plant injury at 500 g/ha (wheat; 500 g ai/ha, visual injury): 60%; pest or weed control at 250 g/ha (ducksalad): 0% |
